Test results as given in ChEMBL document CHEMBL2417538, “Antithrombotic effects of LB30870, a potent, orally active, selective and direct thrombin inhibitor, and pharmacokinetics of its prodrug” (Bioorg Med Chem Lett, 2013).
≈ marks a conversion by molar mass, not a printed value.

Experiments:
Rattus norvegicus [1] = assay: Anticoagulant activity in Sprague-Dawley rat deep vein thrombosis model assessed as reduction in wet clot weight at 35 ug/kg, iv administered as infusion; type: functional
[2] = Plasma protein binding in human at 1 ug/ml by ultra-filtration method; type: ADME, cell-free; details: read-out: PPB (converted)
[3] = Plasma protein binding in rat at 1 ug/ml by ultra-filtration method; type: ADME, cell-free; details: read-out: PPB (converted)
Rattus norvegicus [4] = assay: Anticoagulant activity in Sprague-Dawley rat deep vein thrombosis model assessed as reduction in wet clot weight administered as iv bolus followed by infusion relative to control; type: functional, organism-based
Rattus norvegicus [5] = assay: Anticoagulant activity in Sprague-Dawley rat deep vein thrombosis model assessed as prothrombin time change at 0.125 mg/kg, iv administered as bolus and 5 ug/kg/min administered as infusion relative to control; type: functional
Rattus norvegicus [6] = assay: Anticoagulant activity in Sprague-Dawley rat deep vein thrombosis model assessed as prothrombin time change at […], iv administered as bolus and 2.5 ug/kg/min administered as infusion relative to control; type: functional
Rattus norvegicus [7] = assay: Anticoagulant activity in Sprague-Dawley rat deep vein thrombosis model assessed as prothrombin time change at 0.044 mg/kg, iv administered as bolus and 1.75 ug/kg/min administered as infusion relative to control; type: functional
Rattus norvegicus [8] = assay: Anticoagulant activity in Sprague-Dawley rat deep vein thrombosis model assessed as prothrombin time change at 0.25 mg/kg, iv administered as bolus and 10 ug/kg/min administered as infusion relative to control; type: functional
Rattus norvegicus [9] = assay: Anticoagulant activity in Sprague-Dawley rat deep vein thrombosis model assessed as prothrombin time change at 0.025 mg/kg, iv administered as bolus and 1 ug/kg/min administered as infusion relative to control; type: functional
Rattus norvegicus [10] = assay: Anticoagulant activity in Sprague-Dawley rat deep vein thrombosis model assessed as activated partial thromboplastin time change at 0.125 mg/kg, iv administered as bolus and 5 ug/kg/min administered as infusion relative to control; type: functional
Rattus norvegicus [11] = assay: Anticoagulant activity in Sprague-Dawley rat deep vein thrombosis model assessed as activated partial thromboplastin time change at […], iv administered as bolus and 2.5 ug/kg/min administered as infusion relative to control; type: functional
Rattus norvegicus [12] = assay: Anticoagulant activity in Sprague-Dawley rat deep vein thrombosis model assessed as activated partial thromboplastin time change at 0.044 mg/kg, iv administered as bolus and 1.75 ug/kg/min administered as infusion relative to control; type: functional
Rattus norvegicus [13] = assay: Anticoagulant activity in Sprague-Dawley rat deep vein thrombosis model assessed as activated partial thromboplastin time change at 0.025 mg/kg, iv administered as bolus and 1 ug/kg/min administered as infusion relative to control; type: functional
Rattus norvegicus [14] = assay: Anticoagulant activity in Sprague-Dawley rat deep vein thrombosis model assessed as activated partial thromboplastin time change at 0.25 mg/kg, iv administered as bolus and 10 ug/kg/min administered as infusion relative to control; type: functional
Rattus norvegicus [15] = assay: Anticoagulant activity in Sprague-Dawley rat deep vein thrombosis model assessed as wet clot weight at 0.125 mg/kg, iv administered as bolus and 5 ug/kg/min administered as infusion (reference value: 83 +/- 5.1 mg); type: functional
Rattus norvegicus [16] = assay: Anticoagulant activity in Sprague-Dawley rat deep vein thrombosis model assessed as wet clot weight at […], iv administered as bolus and 2.5 ug/kg/min administered as infusion (reference value: 83 +/- 5.1 mg); type: functional
Rattus norvegicus [17] = assay: Anticoagulant activity in Sprague-Dawley rat deep vein thrombosis model assessed as wet clot weight at 0.044 mg/kg, iv administered as bolus and 1.75 ug/kg/min administered as infusion (reference value: 83 +/- 5.1 mg); type: functional
Plasminogen = Plasminogen (Homo sapiens, UniProt P00747); assay: Inhibition of human plasmin
Plasminogen, sequence (P00747 97-580 limits assumed): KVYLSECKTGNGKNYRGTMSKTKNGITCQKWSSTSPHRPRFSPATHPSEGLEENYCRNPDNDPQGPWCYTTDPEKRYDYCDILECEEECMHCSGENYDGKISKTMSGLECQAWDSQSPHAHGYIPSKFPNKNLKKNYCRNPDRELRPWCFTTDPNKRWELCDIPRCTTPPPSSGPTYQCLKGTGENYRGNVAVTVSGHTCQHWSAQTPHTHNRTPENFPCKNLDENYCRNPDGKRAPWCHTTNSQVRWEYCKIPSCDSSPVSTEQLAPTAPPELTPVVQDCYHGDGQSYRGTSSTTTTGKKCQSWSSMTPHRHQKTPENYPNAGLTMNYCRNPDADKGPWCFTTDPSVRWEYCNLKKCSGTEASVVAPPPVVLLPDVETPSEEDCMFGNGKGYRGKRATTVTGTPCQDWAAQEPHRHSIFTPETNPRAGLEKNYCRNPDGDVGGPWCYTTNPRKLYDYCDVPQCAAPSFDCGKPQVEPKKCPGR
Plasminogen, sequence (P00747 581-810 limits assumed): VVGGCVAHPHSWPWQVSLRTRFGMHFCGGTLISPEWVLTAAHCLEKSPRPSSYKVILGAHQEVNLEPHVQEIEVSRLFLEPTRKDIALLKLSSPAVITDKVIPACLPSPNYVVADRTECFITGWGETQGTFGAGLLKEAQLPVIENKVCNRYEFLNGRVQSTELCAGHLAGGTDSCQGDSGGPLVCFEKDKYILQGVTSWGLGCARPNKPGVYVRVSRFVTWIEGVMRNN

[18] = target: Tissue-type plasminogen activator (Homo sapiens, UniProt P00750); assay: Inhibition of human t-PA
Tissue-type plasminogen activator, sequence (P00750 whole entry): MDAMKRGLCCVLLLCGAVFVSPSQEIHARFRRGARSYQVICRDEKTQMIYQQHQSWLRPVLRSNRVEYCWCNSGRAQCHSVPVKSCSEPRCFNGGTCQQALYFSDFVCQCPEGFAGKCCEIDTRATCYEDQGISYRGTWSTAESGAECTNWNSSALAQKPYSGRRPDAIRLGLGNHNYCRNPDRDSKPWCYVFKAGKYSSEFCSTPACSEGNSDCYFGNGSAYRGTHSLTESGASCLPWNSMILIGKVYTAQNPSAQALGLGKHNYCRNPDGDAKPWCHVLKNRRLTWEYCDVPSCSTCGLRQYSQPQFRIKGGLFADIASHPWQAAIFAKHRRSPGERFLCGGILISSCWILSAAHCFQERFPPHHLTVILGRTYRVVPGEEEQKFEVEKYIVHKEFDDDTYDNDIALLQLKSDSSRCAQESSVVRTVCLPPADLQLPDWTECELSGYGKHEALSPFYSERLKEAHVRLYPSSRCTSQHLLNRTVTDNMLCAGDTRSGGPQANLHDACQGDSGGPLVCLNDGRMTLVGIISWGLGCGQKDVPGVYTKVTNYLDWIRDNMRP

Trypsin = Trypsin (Homo sapiens, UniProt P07477+P07478+P35030); assay: Inhibition of human trypsin; type: protein assay
Coagulation factor X = Coagulation factor X (Homo sapiens, UniProt P00742); assay: Inhibition of human factor 10a
Coagulation factor X, sequence (P00742 41-179 limits assumed): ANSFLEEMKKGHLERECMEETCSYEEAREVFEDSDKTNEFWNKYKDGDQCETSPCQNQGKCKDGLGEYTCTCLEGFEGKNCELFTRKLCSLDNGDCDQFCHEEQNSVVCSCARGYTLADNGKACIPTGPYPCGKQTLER
Coagulation factor X, sequence (P00742 235-488 limits assumed): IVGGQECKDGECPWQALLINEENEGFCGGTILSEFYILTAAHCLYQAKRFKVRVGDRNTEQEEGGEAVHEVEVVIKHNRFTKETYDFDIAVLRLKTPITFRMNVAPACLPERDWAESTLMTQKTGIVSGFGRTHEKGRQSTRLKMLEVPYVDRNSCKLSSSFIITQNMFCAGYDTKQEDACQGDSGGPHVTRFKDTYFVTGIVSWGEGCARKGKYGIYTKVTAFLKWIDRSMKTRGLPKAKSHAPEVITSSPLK

[19] = Aqueous solubility of the compound at pH 4.73; type: physicochemical; details: aqueous solution
[20] = Aqueous solubility of the compound at pH 6.96; type: physicochemical; details: aqueous solution
[21] = Aqueous solubility of the compound at pH 3.04; type: physicochemical; details: aqueous solution
[22] = Distribution coefficient, log D of the compound at pH 7 by potentiometric titration; type: physicochemical; details: octanol/water
[23] = Dissociation constant, pKa of the compound by potentiometric titration; type: physicochemical
Canis familiaris [24] = assay: Oral bioavailability in Beagle dog at 10 mg/kg assessed as LB30870; type: ADME, organism-based, Canis lupus familiaris; details: in vivo
Canis familiaris [25] = assay: AUC in Beagle dog at 10 mg/kg, po assessed as LB30870; type: ADME, organism-based, Canis lupus familiaris, Plasma; design: dose 10 mg/kg, route oral; details: in vivo
Canis familiaris [26] = assay: Cmax in Beagle dog at 10 mg/kg, po assessed as LB30887; type: ADME, organism-based, Canis lupus familiaris; design: dose 10 mg/kg, route oral; details: in vivo
Canis familiaris [27] = assay: Cmax in Beagle dog at 10 mg/kg, po assessed as LB30870; type: ADME, organism-based, Canis lupus familiaris; design: dose 10 mg/kg, route oral; details: in vivo
Rattus norvegicus [28] = assay: Oral bioavailability in Sprague-Dawley rat at 30 mg/kg assessed as LB30870; type: ADME, organism-based; details: in vivo
Rattus norvegicus [29] = assay: AUC in Sprague-Dawley rat at 30 mg/kg, po assessed as LB30870; type: ADME, organism-based, Plasma; design: dose 30 mg/kg, route oral; details: in vivo
Rattus norvegicus [30] = assay: AUC in Sprague-Dawley rat at 30 mg/kg, po assessed as LB30887; type: ADME, organism-based, Plasma; design: dose 30 mg/kg, route oral; details: in vivo
Rattus norvegicus [31] = assay: Cmax in Sprague-Dawley rat at 30 mg/kg, po assessed as LB30870; type: ADME, organism-based; design: dose 30 mg/kg, route oral; details: in vivo
Rattus norvegicus [32] = assay: Cmax in Sprague-Dawley rat at 30 mg/kg, po assessed as LB30887; type: ADME, organism-based; design: dose 30 mg/kg, route oral; details: in vivo
Canis familiaris [33] = assay: AUC in Beagle dog at 10 mg/kg, po assessed as LB30887; type: ADME, organism-based, Canis lupus familiaris, Plasma; design: dose 10 mg/kg, route oral; details: in vivo
[34] = Aqueous solubility of the compound at pH 9.0; type: physicochemical; details: aqueous solution
[35] = Aqueous solubility of the compound at pH 6.3; type: physicochemical; details: aqueous solution
[36] = Aqueous solubility of the compound at pH 7.4; type: physicochemical; details: aqueous solution

Work on `N=C(N)c1ccc(CNC(=O)[C@@H]2CCN2C(=O)[C@H](NCC(=O)O)C2CCCCC2)cc1` yielded an ED50 (Rattus norvegicus [1]) of 1.4 µg/kg/min, a fraction unbound at 1 ug/ml [2] of 0.847 and a fraction unbound at 1 ug/ml [3] of 0.9. For the same compound, the Activity (Rattus norvegicus [4]) was “Dose-dependent effect”, the “fold change (FC)” value (Rattus norvegicus [5]) was 2.72 and the “fold change (FC)” value (Rattus norvegicus [6]) was 1.46. The “fold change (FC)” value (Rattus norvegicus [7]) was 1.42, the “fold change (FC)” value (Rattus norvegicus [8]) was 3.66 and the “fold change (FC)” value (Rattus norvegicus [9]) was 1.13. For the same compound, the “fold change (FC)” value (Rattus norvegicus [10]) was 3.95, the “fold change (FC)” value (Rattus norvegicus [11]) was 1.83 and the “fold change (FC)” value (Rattus norvegicus [12]) was 1.98. For the same compound, the “fold change (FC)” value (Rattus norvegicus [13]) was 1.67, the “fold change (FC)” value (Rattus norvegicus [14]) was 6.05 and the Activity (Rattus norvegicus [15]) was 3.6 mg. The Activity (Rattus norvegicus [16]) was 15.9 mg, the Activity (Rattus norvegicus [17]) was 25.6 mg and the Ki (Plasminogen) was 1.8 µM. The Ki [18] was 1.51 µM, the Ki (Trypsin) was 0.0043 µM and the Ki (Coagulation factor X) was 3.68 µM.
In the case of `CCOC(=O)CN[C@H](C(=O)N1CCC[C@H]1C(=O)NCc1ccc(/C(N)=N/O)s1)C(c1ccccc1)c1ccccc1`, the solubility [19] is reported as 10 µg/mL (≈ 17.3 µM), the solubility [20] is reported as < 10 µg/mL and the solubility [21] is reported as 550 µg/mL (≈ 952 µM). It also gave a logD [22] of 1.74, a pKa [23] of 3.98 and an F (Canis familiaris [24]) of 35%. For the same compound, the AUC (Canis familiaris [25]) was 491 µg·min/mL, the Cmax (Canis familiaris [26]) was 2100 ng/mL and the Cmax (Canis familiaris [27]) was 3700 ng/mL. For the same compound, the F (Rattus norvegicus [28]) was 13%, the AUC (Rattus norvegicus [29]) was 38 µg·min/mL and the AUC (Rattus norvegicus [30]) was 203 µg·min/mL. For the same compound, the Cmax (Rattus norvegicus [31]) was 440 ng/mL, the Cmax (Rattus norvegicus [32]) was 1740 ng/mL and the AUC (Canis familiaris [33]) was 100 µg·min/mL.
`CCCCCCOC(=O)NC(=N)c1ccc(NCc2nc3cc(C(=O)N(CCC(=O)OCC)c4ccccn4)ccc3n2C)cc1` [DABIGATRAN ETEXILATE] showed a solubility [34] of 0.3 µg/mL (≈ 0.478 µM), a solubility [35] of 2.3 µg/mL (≈ 3.66 µM) and a solubility [36] of 0.4 µg/mL (≈ 0.637 µM). It also gave a logD [22] of 3.7.
Compound `CCOC(=O)CN[C@@H](C(=O)N1CC[C@H]1C(=O)NCc1ccc(/C(N)=N\O)cc1)C1CCCCC1` [XIMELAGATRAN] has a logD [22] of 0.41 and a pKa [23] of 4.73.
Work on `CC1CNc2c(cccc2S(=O)(=O)N[C@@H](CCCNC(=N)N)C(=O)N2CC[C@@H](C)C[C@@H]2C(=O)O)C1` (stereo partly specified) [ARGATROBAN] yielded a Ki (Plasminogen) of 257 µM, a Ki [18] of 87.8 µM and a Ki (Trypsin) of 1.99 µM. It also gave a Ki (Coagulation factor X) of 53 µM.
